Values quoted from earlier work in publication PMC4512239 (Clinical cancer research : an official journal of the …, 2015).

Details: allosteric m-TOR inhibitors; cited from earlier work

CO[C@H]1C[C@@H]2CC[C@@H](C)[C@@](O)(O2)C(=O)C(=O)N2CCCC[C@H]2C(=O)O[C@H]([C@H](C)C[C@@H]2CC[C@@H](OC(=O)C(C)(CO)CO)[C@H](OC)C2)CC(=O)[C@H](C)/C=C(\C)[C@@H](O)[C@@H](OC)C(=O)[C@H](C)C[C@H](C)/C=C/C=C/C=C/1C [temsirolimus]
half-life: ≥ 24 h

CO[C@H]1C[C@@H]2CC[C@@H](C)[C@@](O)(O2)C(=O)C(=O)N2CCCC[C@H]2C(=O)O[C@H]([C@H](C)C[C@@H]2CC[C@@H](OCCO)[C@H](OC)C2)CC(=O)[C@H](C)/C=C(\C)[C@@H](O)[C@@H](OC)C(=O)[C@H](C)C[C@H](C)/C=C/C=C/C=C/1C [everolimus]
half-life: ≥ 24 h

CO[C@H]1C[C@@H]2CC[C@@H](C)[C@@](O)(O2)C(=O)C(=O)N2CCCC[C@H]2C(=O)O[C@H]([C@H](C)C[C@@H]2CC[C@@H](OP(C)(C)=O)[C@H](OC)C2)CC(=O)[C@H](C)/C=C(\C)[C@@H](O)[C@@H](OC)C(=O)[C@H](C)C[C@H](C)/C=C/C=C/C=C/1C [ridaforolimus]
half-life: ≥ 24 h
